Assay results published in patent US20260124192A1, “COMPOUNDS, COMPOSITIONS, AND METHODS OF TREATING RNA VIRAL INFECTIONS” (priority 2024, published 2026).
Read-outs that look alike come from different tables or passages of the source.

Experiments:
SARS-CoV-2 USA-WA1/2020 [1] = experiment: SARS-CoV-2 immunofluorescence (IF) assay, HeLa-ACE2 (Method 1); assay type: cell-based; conditions: Severe acute respiratory syndrome coronavirus 2, HeLa-ACE2, SARS-CoV-2 USA-WA1/2020, 2% FBS
SARS-CoV-2 USA-WA1/2020 [2] = experiment: SARS-CoV-2 CPE assay, Vero E6 (Method 2); assay type: cell-based; conditions: Severe acute respiratory syndrome coronavirus 2, Vero C1008, 2% FBS
SARS-CoV-2 USA-WA1/2020 [3] = experiment: SARS-CoV-2 CPE assay, A549-ACE2 (Method 2); assay type: cell-based; conditions: 2% FBS
SARS-CoV-2 USA-WA1/2020 [4] = experiment: SARS-CoV-2 viral yield reduction (VYR) assay, Caco-2 (Method 2); assay type: cell-based; conditions: Severe acute respiratory syndrome coronavirus 2, 2% FBS
Method: After sufficient virus replication occurs (3 days for SARS-CoV-2), a sample of supernatant is taken from each infected well (three replicate wells are pooled) and tested immediately or held frozen at −80° C. for later virus titer determination. After maximum CPE is observed, the viable plates are stained with neutral red dye. The incorporated dye content is quantified as described above to generate the EC50 and CC50 values.
Serial 1/10 dilutions of virus are made and plated into 4 replicate wells containing fresh cell monolayers of Vero E6 cells. Plates are then incubated, and cells are scored for presence or absence of virus after distinct CPE is observed, and the CCID50 calculated using the Reed-Muench method (24). […] Dividing EC90 by the CC50 gives the SI value for this test.

[5] = system: SARS-CoV-2 Alpha (B.1.1.7); experiment: SARS-CoV-2 IF assay, HeLa-ACE2 (Method 1); assay type: cell-based; conditions: 2% FBS
[6] = system: SARS-CoV-2 Beta (B.1.351); experiment: SARS-CoV-2 IF assay, HeLa-ACE2 (Method 1); assay type: cell-based; conditions: 2% FBS
[7] = system: SARS-CoV-2 Delta (B.1.617.2); experiment: SARS-CoV-2 IF assay, HeLa-ACE2 (Method 1); assay type: cell-based; conditions: 2% FBS
[8] = system: SARS-CoV-2 Delta (B.1.617.2); experiment: SARS-CoV-2 CPE assay, Vero 76 (Method 2); assay type: cell-based; conditions: Severe acute respiratory syndrome coronavirus 2, 2% FBS
[9] = system: SARS-CoV-2 Omicron (B.1.1.529); experiment: SARS-CoV-2 IF assay, HeLa-ACE2 (Method 1); assay type: cell-based; conditions: Severe acute respiratory syndrome coronavirus 2, HeLa-ACE2, SARS-CoV-2 Omicron (B.1.1.529), 2% FBS
Norwalk Virus = experiment: Norwalk virus CPE assay, HG23 (Method 6); assay type: cell-based; conditions: Norovirus Norwalk Virus, 2% FBS, @ 5 μM
Method: Compounds were tested in an assay medium containing 2% fetal bovine serum (FBS). Test compounds were added to cells prior to infection with virus at a multiplicity of infection (MOI) sufficient to induce visible cytopathic effect (CPE). […] Additionally, the EC90 was defined as the concentration required to achieve a 1 log10 reduction in viral titer. Dose-response curves depicting viral CPE (red line) and compound cytotoxicity (purple line) were generated to support these analyses.

[10] = system: Influenza B Victoria/Florida; experiment: Influenza B CPE assay, MDCK; assay type: cell-based; conditions: Influenza B virus, albumin content N/A
Excerpt: (§1) The antiviral assays were cell line based and consisted in transfecting each of the viruses tested in a compatible cell line. Upon infection and after drug treatment, viral survival and cell toxicity were reported from the readout of three different assays: cytopathic effect (CPE), viral yield reduction (VYR), or immunofluorescence (IF).

[11] = system: Influenza B Yamagata/Brisbane; experiment: Influenza B CPE assay, MDCK; assay type: cell-based; conditions: Influenza B virus, albumin content N/A
Excerpt: as §1

[12] = Cytotoxicity, neutral red, Vero E6; assay type: cell-based; conditions: African green monkey, Vero E6 cells (uninfected toxicity wells), with CPE assay, not converted for FBS
Method: Confluent or near-confluent cell culture monolayers of Vero E6 cells are prepared in 96-well disposable microplates the day before testing. Cells are maintained in MEM supplemented with 5% FBS. For antiviral assays the same medium is used but with FBS reduced to 2% and supplemented with 50-μg/ml gentamicin. Compounds are dissolved in DMSO, saline or the diluent requested by the submitter. […] The test compound is prepared at four serial log 10 concentrations, usually 0.1, 1.0, 10, and 100 μg/ml or μM (per sponsor preference). Lower concentrations are used when insufficient compound is supplied. Five microwells are used per dilution: three for infected cultures and two for uninfected toxicity cultures. Controls for the experiment consist of six microwells that are infected and not treated (virus controls) and six that are untreated and uninfected (cell controls) on every plate. A known active drug is tested in parallel as a positive control drug using the same method as is applied for test compounds. The positive control is tested with every test run.
Growth media is removed from the cells and the test compound is applied in 0.1 ml volume to wells at 2× concentration. Virus, normally at ˜60 CCID50 (50% cell culture infectious dose) in 0.1 ml volume is added to the wells designated for virus infection. […] The dye content in each well is quantified using a spectrophotometer at 540 nm wavelength. […]

Vero 76 cells = conditions: with CPE assays (SARS-CoV-2 WA1, Delta), not converted for FBS
MRC-5 cells = conditions: human, 6 days
in vitro = conditions: African green monkey, CC50 (μM), Vero 76; with CPE assays (SARS-CoV-2 WA1, Delta); not converted for FBS
Influenza A H1N1/WSN/33 = experiment: Influenza A virus IF assay, A549 (Method 7)
Method: A549 cells were infected with each viral strain at MOI 0.05. After 24 h post-infection with A/WSN/33 cells were fixed with 4% formaldehyde for 30 min. Cells were briefly washed with PBS, then permeabilized with 0.1% Triton X-100 in PBS for 15 minutes. Blocking occurred at room temperature for 1 hour with 0.5% BSA in PBS followed by incubation with the NP antibody (HT103, a gift from Thomas Moran) in 0.5% BSA in PBS for 1 hour at room temperature. Cells were washed with PBS 2× and incubated with a fluorescently-labeled secondary antibody, alexa-fluor-488 (Invitrogen), in 0.5% BSA in PBS with DAPI for 45 min at room temperature. Two washes with PBS were performed before imaging the cells on a Celigo Image Cytometer. Infected cells (488 nm) and total cells (DAPI) were quantified using the Celigo (Nexcelcom) imaging cytometer. Infectivity was measured by the accumulation of viral NP protein (fluorescence accumulation). Percent infection was quantified as ((Infected cells/Total cells)−Background)*100 and the DMSO control was then set to 100% infection for analysis. Data was fit using nonlinear regression and IC50s for each experiment were determined using GraphPad Prism version 8.0.2 (San Diego, CA). Cytotoxicity was also performed using the MTT assay (Roche), according to the manufacturer's instructions. […]

Cc1c(-c2ccc(O)cc2)n(Cc2ccc(OCCN3CCCCC3)cc2)c2ccc(O)cc12 [Pipendoxifene]
EC50 (SARS-CoV-2 USA-WA1/2020 [1]): 675 nM | EC50 (SARS-CoV-2 USA-WA1/2020 [2]): 520 nM | EC50 (SARS-CoV-2 USA-WA1/2020 [3]): 1900 nM | EC50 (SARS-CoV-2 USA-WA1/2020 [4]): 540 nM | EC50 ([5]; SARS-CoV-2 Alpha (B.1.1.7)): 1200 nM | EC50 ([5]; Severe acute respiratory syndrome coronavirus 2, HeLa-ACE2, SARS-CoV-2 Alpha (B.1.1.7)): 830 nM | EC50 ([6]; SARS-CoV-2 Beta (B.1.351)): 668 nM | EC50 ([6]; Severe acute respiratory syndrome coronavirus 2, HeLa-ACE2, SARS-CoV-2 Beta (B.1.351)): 1050 nM | EC50 ([7]; SARS-CoV-2 Delta (B.1.617.2)): 677 nM | EC50 ([7]; Severe acute respiratory syndrome coronavirus 2, HeLa-ACE2, SARS-CoV-2 Delta (B.1.617.2)): 740 nM | EC50 [8]: 2400 nM | EC50 [9]: 750 nM | percent effect printed in column EC50 (μM) (Norwalk Virus): 31% @ | EC50 ([10]; read-out: Corrected EC50): 4100 nM | EC50 ([10]; read-out: EC50): 4100 nM | EC50 ([11]; read-out: Corrected EC50): 6700 nM | EC50 ([11]; read-out: EC50): 6700 nM | CC50 [12]: 3200 nM | CC50 (Vero 76 cells): 3200 nM | CC50 (MRC-5 cells): > 1000 nM | CC50 (in vitro): 2.9 µM | EC50 (Influenza A H1N1/WSN/33): 7490 nM
